Here are results for 11 molecules from patent US11447487B2, “Spiroheptanyl hydantoins as rock inhibitors” (BRISTOL-MYERS SQUIBB COMPANY, priority 2017, dated 2022).

As usually defined, the IC50 is the point on the concentration scale where inhibition reaches its midpoint. A lower IC50 goes with higher potency.

In this test the target is ROCK2 (Homo sapiens (Human), UniProt O75116). In words: ROCK assay (Caliper LABCHIP peptide phosphorylation). The format is biochemical. As to conditions: 5 μM ATP, 1.5 μM peptide substrate. As for the experimental part: The effectiveness of compounds of the present invention as ROCK inhibitors can be determined in a 30 μL assay containing 20 mM HEPES, pH 7.5, 20 mM MgCl2, 0.015% Brij-35, 4 mM DTT, 5 μM ATP and 1.5 μM peptide substrate (FITC-AHA-AKRRRLSSLRA-OH) (SEQ ID No. 1). Compounds were dissolved in DMSO so that the final concentration of DMSO was <2%, and the reaction was initiated with Rho kinase variants. After incubation, the reaction was terminated by the addition of EDTA and the phosphorylated and non-phosphorylated peptides separated using a LABCHIP® 3000 Reader (Caliper Life Sciences). […] Compounds were tested in dose-response format, and the inhibition of kinase activity was calculated at each concentration of compound. The inhibition data were fit using a curve-fitting program to determine the IC50; i.e., the concentration of compound required to inhibit 50% of kinase activity. Representative Examples were tested in the ROCK assay described above and found having ROCK inhibitory activity. A range of ROCK inhibitory activity (IC50 values) of ≤50 μM (50000 nM) was observed. Table A below lists the ROCK IC50 values measured for the following examples.
Chain of ROCK2 (O75116 whole entry, species assumed): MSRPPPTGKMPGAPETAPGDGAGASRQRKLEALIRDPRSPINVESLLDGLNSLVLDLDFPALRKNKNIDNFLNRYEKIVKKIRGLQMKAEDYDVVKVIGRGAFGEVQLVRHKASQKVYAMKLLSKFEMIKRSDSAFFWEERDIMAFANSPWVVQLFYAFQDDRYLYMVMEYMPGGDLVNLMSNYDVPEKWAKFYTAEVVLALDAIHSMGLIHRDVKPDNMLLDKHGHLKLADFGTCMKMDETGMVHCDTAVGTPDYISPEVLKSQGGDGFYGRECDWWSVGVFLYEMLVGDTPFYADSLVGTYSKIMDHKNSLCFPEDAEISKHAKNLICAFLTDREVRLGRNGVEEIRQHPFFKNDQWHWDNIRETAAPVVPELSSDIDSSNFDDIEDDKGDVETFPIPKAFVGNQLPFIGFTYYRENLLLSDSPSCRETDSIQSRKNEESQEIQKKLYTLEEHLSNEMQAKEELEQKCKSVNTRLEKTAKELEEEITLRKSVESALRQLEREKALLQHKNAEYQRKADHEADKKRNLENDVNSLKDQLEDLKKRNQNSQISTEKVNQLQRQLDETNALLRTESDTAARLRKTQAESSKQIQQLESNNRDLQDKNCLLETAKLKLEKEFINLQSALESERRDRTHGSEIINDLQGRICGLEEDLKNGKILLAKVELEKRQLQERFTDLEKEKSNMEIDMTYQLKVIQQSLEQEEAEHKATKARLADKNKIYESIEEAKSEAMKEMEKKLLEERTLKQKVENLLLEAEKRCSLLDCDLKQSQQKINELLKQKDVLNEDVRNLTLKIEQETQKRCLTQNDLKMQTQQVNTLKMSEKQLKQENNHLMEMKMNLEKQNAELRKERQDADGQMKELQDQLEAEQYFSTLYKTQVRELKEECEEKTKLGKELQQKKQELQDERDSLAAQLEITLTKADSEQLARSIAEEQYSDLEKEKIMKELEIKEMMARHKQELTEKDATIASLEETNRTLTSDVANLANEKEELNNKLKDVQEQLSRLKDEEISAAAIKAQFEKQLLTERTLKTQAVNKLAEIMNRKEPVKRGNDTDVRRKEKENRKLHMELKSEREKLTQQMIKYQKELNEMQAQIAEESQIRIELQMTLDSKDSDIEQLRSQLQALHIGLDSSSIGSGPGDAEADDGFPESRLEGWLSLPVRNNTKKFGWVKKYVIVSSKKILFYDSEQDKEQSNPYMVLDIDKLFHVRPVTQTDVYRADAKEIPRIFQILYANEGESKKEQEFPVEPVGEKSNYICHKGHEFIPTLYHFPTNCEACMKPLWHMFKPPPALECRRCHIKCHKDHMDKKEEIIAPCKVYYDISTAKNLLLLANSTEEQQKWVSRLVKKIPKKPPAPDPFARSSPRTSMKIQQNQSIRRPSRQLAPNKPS
On to “2-((((R)-6-(4-((1-adamantyl)methyl)-2,5-dioxoimidazolidin-1-yl)spiro[3.3]heptan-2-yl)oxy)nicotinamide [Example 68]”, for which the IC50 is 17 nM. Under `NC(=O)c1cccnc1O[C@H]1C[C@]2(C1)C[C@H](N1C(=O)NC(CC3CCCCC3)C1=O)C2` (single isomer, unassigned) [Example 2, 2-{[(αR)-6-[4-(cyclohexyl-methyl)-2,5-dioxoimidazol-idin-1-yl]spiro-[3.3]heptan-2-yl]-oxy}pyridine-3-carboxamide] stands 8 nM; under `NC(=O)c1cccnc1O[C@H]1C[C@]2(C1)C[C@H](N1C(=O)NC(CCc3ccccc3)C1=O)C2` (single isomer, unassigned) [Example 5, 2-{[(αR)-6-[2,5-dioxo-4-(2-phenylethyl)-imidazolidin-1-yl]spiro[3.3]-heptan-2-yl]oxy}-pyridine-3-carboxamide], 25 nM. The molecule `NC(=O)c1cccnc1O[C@H]1C[C@]2(C1)C[C@H](N1C(=O)NC(CC3CCCCC3)C1=O)C2` (single isomer, unassigned) [Example 6, 2-{[(αR)-6-(4-cyclohexylmethyl-2,5-dioxoimidazol-idin-1-yl)spiro-[3.3]heptan-2-yl]-oxy}pyridine-3-carboxamide] registered an IC50 of 91 nM. Molecule `NC(=O)c1cccnc1O[C@H]1C[C@]2(C1)C[C@H](N1C(=O)NC(CCc3ccccc3)C1=O)C2` (single isomer, unassigned) [Example 12, 2-{[(αR)-6-(4-(2-phenylethyl)-2,5-dioxoimidazol-idin-1-yl)spiro-[3.3]heptan-2-yl]oxy}pyridine-3-carboxamide] had a half-inhibitory concentration (IC50) of 270 nM.

Consider `CC(C)(C)OC(=O)NCCC1NC(=O)N([C@H]2C[C@@]3(C[C@H](Oc4ncccc4C(N)=O)C3)C2)C1=O` (single isomer, unassigned) [Example 20, tert-butyl N-(2-{2,5-dioxo-1-[(αR)-6-[(3-carbamoylpyridin-2-yl)oxy]spiro-[3.3]heptan-2-yl]-imidazolidin-4-yl}ethyl)carbamate], for which the IC50 is 1710 nM. As to `CC(C)(C)OC(=O)NCCC1NC(=O)N([C@H]2C[C@@]3(C[C@H](Oc4ncccc4C(N)=O)C3)C2)C1=O` (single isomer, unassigned) [Example 21, tert-butyl N-(2-{2,5-dioxo-1-[(αR)-6-[(3-carbamoylpyridin-2-yl)oxy]spiro-[3.3]heptan-2-yl]-imidazolidin-4-yl}ethyl)carbamate], the IC50 was determined as 2380 nM. To `CCC(CC)CC1NC(=O)N([C@H]2C[C@@]3(C[C@H](Oc4ncccc4C(N)=O)C3)C2)C1=O` (single isomer, unassigned) [Example 38, 2-{[(αR)-6-(4-(2-ethylbutyl)-2,5-dioxoimidazolidin-1-yl]spiro[3.3]-heptan-2-yl]oxy}-pyridine-3-carbox-amide] belongs 5 nM; to `NC(=O)c1cccnc1O[C@H]1C[C@]2(C1)C[C@H](N1C(=O)NC(CC3CCCC3)C1=O)C2` (single isomer, unassigned) [Example 40, 2-{[(αR)-6-[4-(cyclopentyl-methyl)-2,5-dioxo-imidazolidin-1-yl]-spiro[3.3]heptan-2-yl]oxy}pyridine-3-carboxamide], 14 nM; to `NC(=O)c1cccnc1O[C@H]1C[C@]2(C1)C[C@H](N1C(=O)NC(CCCC(F)(F)F)C1=O)C2` (single isomer, unassigned) [Example 42, 2-{[(αR)-6-[2,5-dioxo-4-(4,4,4-trifluorobutyl)-imidazolidin-1-yl]-spiro[3.3]heptan-2-yl]oxy}pyridine-3-carboxamide], 22 nM. The molecule `NC(=O)c1cccnc1O[C@H]1C[C@]2(C1)C[C@H](N1C(=O)NC(CCC3CCCCCC3)C1=O)C2` (single isomer, unassigned) [Example 43, 2-{[(αR)-6-[4-(2-cycloheptylethyl)-2,5-dioxoimidazol-idin-1-yl]spiro-[3.3]heptan-2-yl]-oxy}pyridine-3-carboxamide] gave an IC50 of 23 nM.
